As a reminder, the IC50 is the midpoint of a concentration-inhibition curve. A high value points to weaker potency.

The target of this experiment is N-lysine methyltransferase SMYD2 (Homo sapiens, UniProt Q9NRG4). Description: Scintillation Proximity Assay (SPA) for Detection of SMYD2 Enzymatic Inhibition. Particulars: pH 9. Here is the method:
To this end, 100-fold concentrated compound solutions (in DMSO) were previously prepared by serial dilution (1:3.4) of 2 mM stocks in a clear low volume 384-well source microtiter plate (Greiner Bio-One), from which 50 nl of compound solutions were transferred into a white low volume test microtiter plate from the same supplier. […] The samples were then incubated for 15 min at 22° C. to allow pre-equilibration of the putative enzyme-inhibitor complexes before the start of the methylation reaction, which was initiated by the addition of 2.5 μl 2-fold concentrated solution (in assay buffer) of titrated S-Adenosyl-L-Methionine (3H-SAM, Perkin Elmer, final concentration: 60 nM) and p53 Peptide substrate (final concentration: 1.0 μM). The resulting mixture (5 μl final volume) was shortly centrifuged (2 min., 1500 rpm) and incubated at 22° C. during 30 min.
A general note: SPA uses beads or plates that emit light when radiolabelled molecules are held near them.

N-lysine methyltransferase SMYD2, sequence (Q9NRG4 whole entry): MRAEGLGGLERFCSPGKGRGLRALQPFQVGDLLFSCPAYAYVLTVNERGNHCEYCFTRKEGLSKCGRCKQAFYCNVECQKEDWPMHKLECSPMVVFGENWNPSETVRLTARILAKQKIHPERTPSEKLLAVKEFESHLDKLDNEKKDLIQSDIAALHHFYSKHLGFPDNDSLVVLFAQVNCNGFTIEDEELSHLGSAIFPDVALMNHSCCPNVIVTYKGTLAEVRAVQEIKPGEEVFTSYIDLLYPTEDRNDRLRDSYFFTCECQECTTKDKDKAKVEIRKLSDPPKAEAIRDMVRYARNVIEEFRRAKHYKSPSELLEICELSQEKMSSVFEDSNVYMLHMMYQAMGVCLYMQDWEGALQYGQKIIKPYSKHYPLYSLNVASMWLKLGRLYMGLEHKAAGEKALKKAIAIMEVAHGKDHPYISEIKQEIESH

Take `CCN(C(=O)[C@@H](C)NC)C1CN(/C(=N\C#N)Nc2cccc(OC(F)F)c2)N=C1c1ccc(Cl)c(C)c1` (stereo partly specified) [US10023539, Example 37]: half-maximal inhibition (IC50) was put at 0.231 µM.
